Source: patent US8889731B2, “Compounds, compositions and methods for repelling blood-feeding arthropods and deterring their landing and feeding” (Contech Enterprises Inc., priority 2007, dated 2014)
Read-outs that look alike come from different tables or passages of the source.

Columns and labels:
[1] = test system: male or female Aedes aegypti antennae; assay: Coupled gas chromatographic-electroantennographic detection (GC-EAD) of garlic oil extract
Experimental: FIG. 1 illustrates flame ionization detector (FID) and electroantennograhic detector (EAD: male or female Aedes aegypti antennae) responses to aliquots of the low boiling temperature portion of garlic oil extract. Chromatography: Hewlett Packard (HP) gas chromatograph equipped with a fused silica column (30 m×0.32 mm ID) coated with DB-5; injector and detector temperature: 250° C.; temperature program: 50° C.
Aliquots of garlic oil extracts were then subjected to coupled gas chromatographic-electroantennographic detection (GC-EAD) analysis. Fourteen components (10 shown in FIG. 1) elicited responses from female or male mosquito antennae. Some of these components were isolated by high-performance liquid chromatography (HPLC) for identification by nuclear magnetic resonance spectroscopy (NMR). Other components were identified (compounds 11-14 in TABLE 2) by coupled GC-mass spectrometry and by retention index calculations. […] Four of the 10 components in FIG. 1 were tentatively identified by comparing their mass spectra and retention indices with those reported in the literature (Block et al. 1998).
(§1) Components with high molecular weight (>250 daltons) are advantageous in that they: 1) dissipate slowly from treated surfaces; 2) provide long-lasting protection against mosquitoes and 3) convey little, if any, offensive smell. The relative abundance of such components was enhanced by treating garlic oil under vacuum, thus stripping away lower-boiling components. In GC-EAD analyses of the high-boiling residue, four components elicited responses from mosquito antennae.

[2] = test system: mosquitoes; assay: General bioassay procedure with garlic oil, its components and fractions (mosquito species not given); format: in vivo
Experimental: (§2) Candidate repellents and deterrents were bioassayed according to a modified protocol from the World Health Organization (1996). At least 1 hour prior to each bioassay, 75 host-seeking non blood-fed, nulliparous, 5- to 8-day-old female Aedes aegypti, Anopheles gambiae or Culex quinquefasciatus were placed into a wood-framed cage (26.5 cm on each side and 42.5 cm high) with a wooden floor, screened mesh sides and top, and a clear acrylic front fitted with a cotton stockinette sleeve (10 cm diameter). The test subject's arm was covered with an elbow-length polyethylene glove with an excised patch (16.6 cm long, 6 cm wide) to expose the ventral forearm of the test subject. Candidate deterrents were formulated in mineral (paraffin) oil and applied to the exposed forearm 5 min prior to inserting the arm into the cage. The inserted arm remained in the cage for 3 min every 30 min. Prior to each 3-min bioassay period, the hand of the untreated arm was inserted into the cage to ascertain that it received 10 bites within 30 sec as an indication of “biting pressure”.
(§3) The bioassay was terminated when the treated arm received ≧2 bites in one 3-min bioassay period or one bite in each of two consecutive bioassay periods. The time elapsed from experiment initiation to first bite was recorded as deterrent failure or complete protection time.
(§4) N,N-diethyl-m-toluamide formulated in ethanol at a corresponding dose served as a positive control, and mineral oil by itself served as a negative control. On each day, only one candidate compound was tested, ensuring that any residual material in the chamber had disappeared before the next bioassay.
Garlic oil (Allium sativum—Mexico; Clearwater Soap Works, Box 1775 RR1, Clearwater, BC V0E 1N0, Canada) was formulated in mineral oil and tested using the general bioassay procedure described in EXAMPLE 2 at a dose of 0.1 mg per cm^2 of arm surface. It expressed repellence and deterrence for ˜30 min.
Some of the 10 components in FIG. 1 were bioassayed singly (see general bioassay procedure) and in various combinations, all of which were as deterrent to mosquitoes as garlic oil.
To determine the most deterrent component(s) in garlic oil, it was fractionated by HPLC into four fractions, each containing one or more of the EAD-active components (compounds 1-10 in FIG. 1 and 11-14 in TABLE 2). Each fraction was then bioassayed and shown to be similarly effective in repelling and deterring mosquitoes.
as §1

[3] = test system: Aedes aegypti; assay: Arm-in-cage repellent/deterrent bioassay on exposed human forearm (modified WHO protocol), Aedes aegypti; format: in vivo; settings: for pest or weed control at 0.1 mg/cm2 / pest or weed control at 0.5 mg/cm2: Aedes aegypti, topical, (C-T)/C x 100 at time of failure, read-out: Percent repellence
Experimental: as §2, §3, §4
To determine the repellence and deterrence of 8-allylsulfanyloctan-1-ol against Aedes aegypti, a 5%, 10% or 25% formulation of 8-allylsulfanyloctan-1-ol in mineral oil was applied in Experiments 1-3 at a dose of 1.5 mg (total composition) per cm^2 to the skin of the test person, and was bioassayed according to the protocol described under EXAMPLE 2. In Experiment 4, mineral oil by itself served as a negative control and was bioassayed at the same dose (1.5 mg per cm^2) as in Experiments 1-3. Each of Experiments 1-4 was replicated four times.
To compare the repellence and deterrence against Aedes aegypti caused by 8-allylsulfanyloctan-1-ol as a single active ingredient and by 8-allylsulfanyloctan-1-ol in combination with vanillin as a second active ingredient, we tested a 6.7% emulsion of vanillin (Experiment 14), a 6.7% emulsion of 8-allylsulfanyloctan-1-ol (Experiment 15), and a 13.4% emulsion of 8-allylsulfanyloctan-1-ol plus vanillin (1:1 ratio) (Experiment 16). 8-Allylsulfanyloctan-1-ol and vanillin were formulated in Emulsion No. 1 (see EXAMPLE 9). In each of Experiments […], test stimuli were applied at a dose of 1.5 mg per cm^2 to the skin of the test person, and were bioassayed according to the protocol described under EXAMPLE 2. In Experiment 17, Emulsion No. 1 served as a positive control and was tested at the same dose (1.5 mg per cm^2) as in Experiments 14-16.
To be able to compare the repellence and deterrence caused by N,N-diethyl-m-toluamide and by 8-allylsulfanyloctan-1-ol plus vanillin in Emulsion No. 1 (EXAMPLE 9), Experiment 26 tested a 6.7% formulation of N,N-diethyl-m-toluamide in ethanol (the best formulant for DEET) for protection from bites by Aedes egypti. In each replicate, a dose of 1.5 mg per […] was applied to the skin of the test person and bioassayed according to the protocol described under EXAMPLE 2.
To be able to further compare the deterrence caused by N,N-diethyl-m-toluamide with that caused by 8-allylsulfanyloctan-1-ol plus vanillin, Experiment 27 tested a 10.4% formulation of N,N-diethyl-m-toluamide in ethanol, and Experiment 28 tested 8-allylsulfanyloctan-1-ol (10.4%) plus vanillin (7.9%) in Emulsion No. 2 (EXAMPLE 10). […]

[4] = test system: Anopheles gambiae; assay: Arm-in-cage repellent/deterrent bioassay on exposed human forearm (modified WHO protocol), Anopheles gambiae; format: in vivo
Experimental: as §2, §3, §4
(§5) To determine the repellence and deterrence of 8-allylsulfanyloctan-1-ol against Anopheles gambiae, a 2%, 5% or a 10% formulation of 8-allylsulfanyloctan-1-ol in mineral oil was applied in Experiments 5-7 at a dose of 1.5 mg per cm^2 to the skin of the test person, and was bioassayed according to the protocol described under EXAMPLE 2. In Experiment 8, mineral oil by itself served as a negative control and was tested at the same dose (1.5 mg per cm^2) as in Experiments 5-7. Each of Experiments 5-8 was replicated 4 times.
To be able to compare the repellence and deterrence caused N,N-diethyl-m-toluamide (DEET), and by 8-allylsulfanyloctan-1-ol, Experiment 13 tested a 2% formulation of N,N-diethyl-m-toluamide in ethanol (the best formulant for this compound) for protection from bites by Anopheles gambiae. A dose of 1.5 mg per cm^2 was applied to the skin of the test person and bioassayed according to the protocol described under EXAMPLE 2.
To compare the repellence and deterrence against Anopheles gambiae caused by 8-allyl-sulfanyloctan-1-ol as a single active ingredient and by 8-allylsulfanyloctan-1-ol in combination with vanillin as a second active ingredient, we tested a 6.7% emulsion of vanillin (Experiment 18), a 6.7-% emulsion of 8-allylsulfanyl-octan-1-ol (Experiment 19) and a 13.4% emulsion of 8-allylsulfanyloctan-1-ol plus vanillin (1:1 ratio) (Experiment 20). 8-Allylsulfanyloctan-1-ol and vanillin were formulated in Emulsion No. 1 (see EXAMPLE 9). In each of Experiments 18-20, test stimuli were applied at a dose of 1.5 mg per cm^2 to the skin of the test person, and were bioassayed according to the protocol described under EXAMPLE 2. In Experiment 21, Emulsion No. 1 served as a positive control and was tested at the same dose (1.5 mg per cm^2) as in experiments 18-20. Each of Experiments 18-21 was replicated three times.

[5] = test system: Culex quinquefasciatus; assay: Arm-in-cage repellent/deterrent bioassay on exposed human forearm (modified WHO protocol), Culex quinquefasciatus; format: in vivo; settings: 6.7% single active in Emulsion No. 1 (FIG. 9 legend: 2.0%), 1.5 mg per cm^2, Experiments 22, 23
Experimental: as §2, §3, §4
as §5, with “Culex quinquefasciatus,” for “Anopheles gambiae,”, “2% and” for “2%,”, “9-11” for “5-7”, “12,” for “8,”, “[…].” for “5-7.”, “9-11” for “5-8”
To compare the repellence and deterrence against Culex quinquefasciatus caused by 8-allylsulfanyloctan-1-ol as a single active ingredient and by 8-allylsulfanyloctan-1-ol in combination with vanillin as a second active ingredient, we tested a 6.7% emulsion of vanillin (Experiment 22), a 6.7% emulsion of 8-allylsulfanyloctan-1-ol (Experiment 23) and a 13.4% emulsion of 8-allylsulfanyloctan-1-ol plus vanillin (1:1 ratio) (Experiment 24). 8-Allylsulfanyloctan-1-ol and vanillin were formulated in Emulsion No. 1 (see EXAMPLE 9). In each of Experiments […], test stimuli were applied at a dose of 1.5 mg per cm^2 to the skin of the test person, and were bioassayed according to the protocol described under EXAMPLE 2. In Experiment 25, Emulsion No. 1 served as a positive control and was tested at the same dose (1.5 mg per cm^2) as in Experiments 22-24. Each of Experiments 22-25 was replicated three times.

[6] = Dosage >0.1 mg/cm^2 (so in the source)
[7] = Dosage 0.1 mg/cm^2, 0 = immediate failure

| Compound | pest or weed control at 0.1 mg/cm2 ([3]; Dosage 0.1 mg/cm^2) [%] | Failure time [3, 7] [min] | pest or weed control at 0.5 mg/cm2 ([3]; Dosage 0.5 mg/cm^2) [%] | Failure time ([3]; Dosage 0.5 mg/cm^2) [min] | also measured |
| --- | --- | --- | --- | --- | --- |
| C=CCSSCCCSSCC=C [Compound 11, 4,5,9,10-tetrathiatrideca-1,12-diene] | 85 | 0 | – | – | electroantennographic (EAD) response of mosquito antennae [1]: Antennal stimulatory; repellent and deterrent effect in bioassays (in words) [2]: strong repellent and deterrent effect; pest or weed control at 0.1 mg/cm2 [3, 6]: 92%; Failure time [3, 6]: 67.7 min |
| C=CCSSCC1CCC=CS1 (centres unmarked) [Compound 13, 2-(2,3-dithia-5-hexenyl)-3,4-dihydro-2(H)-thiopyran] | – | – | – | – | electroantennographic (EAD) response of mosquito antennae [1]: Antennal stimulatory; repellent and deterrent effect in bioassays (in words) [2]: strong repellent and deterrent effect |
| C=CCSSCC1CC=CSC1 (centres unmarked) [Compound 14, 3-(2,3-dithia-5-hexenyl)-3,4-dihydro-2(H)-thiopyran] | – | – | – | – | electroantennographic (EAD) response of mosquito antennae [1]: Antennal stimulatory; repellent and deterrent effect in bioassays (in words) [2]: strong repellent and deterrent effect |
| C=CCSSc1ccccc1SSCC=C [Compound 15, 1,2-bis-(1,2-dithia-4-pentenyl)-benzene] | 92 | 34 | – | – | – |
| C=CCSSC/C=C/c1ccccc1 [Compound 16, (E)-4,5-dithia-1,7-octadien-1-yl-benzene] | 89 | 35 | 92 | 36 | – |
| C=CCSCCCSCC=C [Compound 17, 4,8-dithiaundeca-1,10-diene] | 89 | 0 | 97 | 36 | – |
| C=CCSCCCCCCSCC=C [Compound 18, 4,11-dithiatetradeca-1,13-diene] | – | – | 93 | 67 | – |
| C=CCSCCCCCCCCSCC=C [Compound 19, 4,13-dithiahexadeca-1,15-diene] | 93 | 0 | 97 | 102 | – |
| C=CCOCCCCCCCCCCOCC=C [Compound 20, 1,10-bis-allyloxy-decane] | 81 | 0 | – | – | had any repellence or deterrence in bioassays ([3]; see TABLE 2, 0.1 mg/cm^2): neither |
| C=CCSCCCCCCCCCO [Compound 22, 9-allylsulfanylnonan-1-ol] | – | – | – | – | Failure time ([3]; Dosage 0.05 mg/cm^2): 33 min |
| C=CCSCCCCCCC(C)O (centres unmarked) [Compound 23, 8-allylsulfanyloctan-2-ol] | – | – | – | – | Failure time ([3]; Dosage 0.05 mg/cm^2): 99 min |
| CCN(CC)C(=O)c1cccc(C)c1 [N,N-diethyl-m-toluamide, reference compound] | – | – | – | – | duration of protection relative to 2% 8-allylsulfanyloctan-1-ol (297 min) ([4]; 2% DEET in ethanol vs 2% 8-allylsulfanyloctan-1-ol in mineral oil): one sixth; protection from bites, average duration ([4]; 2% formulation in ethanol, 1.5 mg per cm^2, Experiment 13): 66 min; protection from bites, average duration ([3]; 6.7% formulation in ethanol, 1.5 mg per cm^2, Experiment 26): 197 min; protection from bites, average duration ([3]; 10.4% formulation in ethanol, 1.5 mg per cm^2, Experiment 27): 231 min |
| COc1cc(C=O)ccc1O [vanillin] | – | – | – | – | protection from bites, average duration [5]: 88 min; protection from bites, average duration ([4]; 6.7% single active in Emulsion No. 1 (FIG. 8 legend: 2.0%), 1.5 mg per cm^2, Experiments 18, 19): 110 min; protection from bites, average duration ([3]; 6.7% single active in Emulsion No. 1, 1.5 mg per cm^2, Experiments 14, 15): 44 min |
